Experimental data published in patent US20130197205A1, “CHITOSAN COVALENTLY LINKED WITH SMALL MOLECULE INTEGRIN ANTAGONIST FOR TARGETED DELIVERY” (Hoffmann-La Roche Inc., priority 2012, published 2013).
Like-named read-outs stand apart in the source and are kept apart here.

Molecular target: T1, αvβ3 (Homo sapiens, UniProt P05106+P06756, DEL719-788)
T1 construct: purchased R & D 3050-AV
Assay: Human αVβ3 solid phase assay (fibrinogen binding)
Conditions: αvβ3-coated plates, fibrinogen as ligand
Description: Buffer used was Buffer A: 20 mM Tris, 150 mM NaCl, 1 mM CaCl2, 1 mM MgCl2, pH 7.4. […] After blocking, plates were washed 5 times with 200 uL of Buffer B (Buffer A+1 mM MnCl2). […] Plates were shaken for 2 minutes, and then incubated for 2 hours for 37° C. […] After the addition of 1st antibody and after the addition of 2nd antibody, plates were shaken for 2 minutes and incubated for 60 minutes at 37° C., and then washed 5 times with 200 uL of Buffer B correspondingly. […] Plates were shaken at RT for 5-8 min, and the development of a green color was gradually showing. After being added 100 uL/well Stop Buffer (1.0 M Phosphoric Acid ([…])), plates were read on Envision at Absorbance mode 450 nm.

T1 sequence (P06756 31-992 limits assumed, stated change not applied): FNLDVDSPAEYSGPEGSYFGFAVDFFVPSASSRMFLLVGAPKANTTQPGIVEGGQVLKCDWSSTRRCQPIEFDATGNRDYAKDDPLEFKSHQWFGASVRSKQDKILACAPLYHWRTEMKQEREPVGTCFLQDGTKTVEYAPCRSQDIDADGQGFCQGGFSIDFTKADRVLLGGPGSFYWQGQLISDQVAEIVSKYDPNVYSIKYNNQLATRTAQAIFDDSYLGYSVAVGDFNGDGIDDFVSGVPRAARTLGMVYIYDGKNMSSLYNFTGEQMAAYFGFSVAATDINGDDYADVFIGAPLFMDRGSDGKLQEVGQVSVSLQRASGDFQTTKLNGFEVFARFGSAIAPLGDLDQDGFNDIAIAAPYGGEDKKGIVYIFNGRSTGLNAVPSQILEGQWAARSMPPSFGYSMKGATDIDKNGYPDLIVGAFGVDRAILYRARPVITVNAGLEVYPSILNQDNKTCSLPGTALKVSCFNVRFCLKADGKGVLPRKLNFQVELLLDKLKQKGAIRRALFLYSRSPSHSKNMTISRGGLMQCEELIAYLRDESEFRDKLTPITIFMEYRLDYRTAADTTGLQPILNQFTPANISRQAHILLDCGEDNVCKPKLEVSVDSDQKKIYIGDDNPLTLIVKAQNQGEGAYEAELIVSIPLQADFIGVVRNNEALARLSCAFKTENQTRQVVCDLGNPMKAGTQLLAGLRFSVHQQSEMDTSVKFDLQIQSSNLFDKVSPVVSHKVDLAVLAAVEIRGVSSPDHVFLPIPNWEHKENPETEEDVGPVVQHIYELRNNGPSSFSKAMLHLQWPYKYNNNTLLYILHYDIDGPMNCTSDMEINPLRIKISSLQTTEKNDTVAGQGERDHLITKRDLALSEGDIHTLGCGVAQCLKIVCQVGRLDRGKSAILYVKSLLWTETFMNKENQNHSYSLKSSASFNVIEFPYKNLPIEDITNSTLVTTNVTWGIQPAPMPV
T1 sequence (P05106 27-718 limits assumed, stated change not applied): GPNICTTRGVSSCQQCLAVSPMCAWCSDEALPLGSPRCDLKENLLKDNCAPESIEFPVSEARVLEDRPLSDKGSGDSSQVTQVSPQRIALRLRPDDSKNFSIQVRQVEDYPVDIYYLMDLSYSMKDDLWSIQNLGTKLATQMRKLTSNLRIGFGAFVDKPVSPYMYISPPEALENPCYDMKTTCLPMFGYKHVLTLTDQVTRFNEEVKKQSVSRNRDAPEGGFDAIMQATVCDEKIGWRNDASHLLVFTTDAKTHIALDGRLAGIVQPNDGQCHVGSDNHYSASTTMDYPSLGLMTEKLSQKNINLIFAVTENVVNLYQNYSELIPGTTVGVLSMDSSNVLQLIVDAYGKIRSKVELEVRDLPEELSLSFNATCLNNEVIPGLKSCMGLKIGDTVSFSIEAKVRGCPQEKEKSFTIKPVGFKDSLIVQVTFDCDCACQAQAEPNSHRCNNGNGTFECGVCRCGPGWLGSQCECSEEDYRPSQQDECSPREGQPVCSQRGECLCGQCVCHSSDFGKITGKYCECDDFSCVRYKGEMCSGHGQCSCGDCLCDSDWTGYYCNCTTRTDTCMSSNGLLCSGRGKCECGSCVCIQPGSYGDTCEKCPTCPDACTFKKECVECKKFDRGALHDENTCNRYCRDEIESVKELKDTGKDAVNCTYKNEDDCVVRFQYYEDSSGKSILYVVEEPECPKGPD

IC50 (read-out: Binding IC50): 2 nM
IC50 (read-out: IC50 of control compound): ~2 nM
Compound: COc1ccc(NC(=O)[C@H](CC(=O)O)NC(=O)CNC(=O)c2cccc(N=C(N)N)c2)cc1 [compound 28]
